Results taken from patent publication US20240002846A1, “COMPOSITIONS AND METHODS FOR THE DIAGNOSIS AND TREATMENT OF ITCH” (Duke University, priority 2020, published 2024).
Entries after “also recorded” stand apart in the source; their conditions may differ.

Experiments:
mice = experiment: Effect of inhibitor pretreatment on LPA-, LPC- or miR-146a-induced scratching behavior; format: in vivo, mouse
[1] = system: extracellular release of miR-146a; experiment: Extracellular release of miRs from cultured mouse keratinocytes (RT-qPCR); format: cell-based; details: mouse keratinocytes
Experimental: Primary mouse keratinocytes were cultured following previous protocol (Chen et al. J. Biol. Chem. 2016, 291, 10252-10262). The epidermis from the back skin of newborn WT or keratinocyte-Trpv4 cKO mice was separated from the dermis by floating the skin on 0.25% trypsin (Gibco, Gaithersburg, MD) for 14-18 h at 4° C. Basal keratinocytes were separated from the cornified sheets by filtration through a […] cell strainer. Keratinocytes were plated on collagen I-coated dishes or glass coverslips and grown in EME media (Gibco, Gaithersburg, MD) containing 8% chelex (Bio-rad, Hercules, CA)-treated FBS with the final Ca^2+ adjusted to 0.05 mM, bovine pituitary extract (50 μg/mL), epidermal growth factor (5 ng/mL), and lx antibiotics/antimycotics (Gibco, Gaithersburg, MD) in a humidified incubator with 5% CO2 at 37° C. for 5-7 days until use. To knockdown Trpv4 in isolated keratinocytes from newborn keratinocyte-Trpv4 cKO mice, cells were treated with 4-OH tamoxifen at 500 nM for 72 h.
Measurement of released vesicles and extracellular miR-146a from cultured keratinocytes or sera Medium for the cultured keratinocytes was replaced with serum-free medium 2 h before LPC stimulation. […] Finally, cell-free supernatants were further purified using a Vesicular Isolation kit (Invitrogen, Waltham, MA) according to the manufacturer's instructions, with final product resuspended in ice-cold PBS. Total RNA extraction was then carried out using a Total RNA Isolation kit (Invitrogen, Waltham, MA). Enrichment for small RNAs was carried out by sequential increase in ethanol concentration and passing through glass-fiber filters. RNase free water was used to elute small RNAs in the final elution step. For human PBC sera or sera from ANIT-treated mice, RNA was isolated using Qiagen miRNeasy Plasma/Serum kit. cDNA synthesis from extracted RNAs was performed according to manufacturer's instructions (qSTAR miRNA kit, Origene). For qPCR, the stem-loop oligonucleotides specific for the following miRs are as follows: miR-146a-5p (GAGAACTGAATTCCATGGG, SEQ ID NO: 4), miR-let-7b (GAGGTAGTAGGTTGTGTGG, SEQ ID NO: 5), miR-125b-1 (CCCT GAGACCCTAACTTG, SEQ ID NO: 6), miR-203 (GTGGTTC TTGACAGTTCAAC, SEQ ID NO: 7), and miR-16-5p (AGCAGCAC GTAAATATTGGC, SEQ ID NO: 8). Primers were purchased from Integrated DNA Technologies company (Coralville, IA). qPCR reactions for each sample were run in triplicates, including no-template controls. MiR-16-5p was selected as a control due to the relative constancy of its expression in various cultured cell lines (Schwarzenbach et al. Clin. Chem. 2015, 61, 1333-1342). qPCR for this miR was performed in tandem with target miRs to determine the optimal normalization procedure. To investigate the effects of the specific TRPV4 inhibitors GSK205 or HC067047 and the specific MEK inhibitor U0126 on LPC-induced extracellular release of miR-146a, cells were incubated with the inhibitors for 15 min before stimulation. Control cells received the same volume of vehicle.
Vesicular release from cultured keratinocytes was quantified by detecting acetylcholinesterase (AChE) activity in the extracellular release fluid. (Gupta et al. Am. J. Physiol. Heart Circ. Physiol. 2007, 292, H3052-3056; Malik et al. Methods Mol. Biol. 2016, 1448, 237-248). CBQCA Protein Quantitation Kit (Molecular Probes, Eugene, OR) was used to assess the total protein amounts of each sample. Quantitation was carried out according to kit instructions (Fluorocet, Systems Biosciences, Palo Alto, CA). Briefly, vesicles were lysed to release esterase enzyme whose activity is measured using a florescence dye, excitation at 544 nm and emission at 590 nm. Fluostar Optima (BMG Labtech, Cary, NC) microplate reader was used to measure esterase activity. 500 ng protein equivalent of input was used per well. […]

SMILES | effect on LPC-induced itch (MEK inhibitor) (mice; i.d. pretreatment 20 μg/50 μL) | effect of MEK inhibitor on LPC-induced release of miR-146a ([1]; 10 μM) | effect on LPC-induced itch (TRPV4 inhibitors) (mice; WT mice, i.p. pretreatment 20 mg/kg) | effect on LPA (18:1)-induced itch (mice; WT mice, i.p. pretreatment 20 mg/kg, LPA 500 μg i.d.) | effect on LPC-induced itch (TRPV4 inhibitors) (mice; WT mice, i.p. pretreatment 20 mg/kg, listed as HC067) | effect of TRPV4 inhibitors on LPC-induced release of miR-146a ([1]; inhibitor 10 μM)
N#CC(=C(/N)Sc1ccccc1N)/C(C#N)=C(\N)Sc1ccccc1N [U0126] | significant reduction; also recorded: significantly attenuated | eliminated; also recorded: abolished | – | – | – | –
Cc1c(C(=O)Nc2cccc(C(F)(F)F)c2)cc(-c2ccccc2)n1CCCN1CCOCC1 [HC067047] | – | – | a reduction | no significant reduction in scratching; also recorded: not significantly altered | significantly reduced | completely eliminated
